Assay results: PubChem BioAssay AID1963825 (Molecular Pharmacology Branch, DTP, NCI, 2024)

Test: Anticancer human tumor 997537-175-T-J1-PDC patient-derived colon adenocarcinoma cell line growth inhibition [POLQ]
Conditions: 997537-175-T-J1-PDC complex spheroid viability, combination with POLQ inhibitors; for IC50: curve of first compound; for viability, T/C: stronger effect = lower value
In short: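 PDC + HUVEC + MSC complex spheroids; POLQ inhibitors ± partner drugs; top conc. at/near clinical Cmax, else 10 microM (SN-38 1 microM), half-log dilutions; 37 degrees C, 5% CO2.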

[1] = second compound 0.0316 µM, first compound 0.0316 µM
[2] = second compound 0.0316 µM, first compound 0.1 µM
[3] = second compound 0.0316 µM, first compound 0.316 µM
[4] = second compound 0.0316 µM, first compound 1 µM
[5] = second compound 0.1 µM, first compound 0.0316 µM
[6] = second compound 0.1 µM, first compound 0.1 µM
[7] = second compound 0.1 µM, first compound 0.316 µM
[8] = second compound 0.1 µM, first compound 1 µM
[9] = second compound 0.316 µM, first compound 0.0316 µM
[10] = second compound 0.316 µM, first compound 0.1 µM
[11] = second compound 0.316 µM, first compound 0.316 µM
[12] = second compound 0.316 µM, first compound 1 µM
[13] = second compound 1 µM, first compound 0.0316 µM
[14] = second compound 1 µM, first compound 0.1 µM
[15] = second compound 1 µM, first compound 0.316 µM
[16] = second compound 1 µM, first compound 1 µM
[17] = second compound 3.16 µM, first compound 0.0316 µM
[18] = second compound 3.16 µM, first compound 0.1 µM
[19] = second compound 3.16 µM, first compound 0.316 µM
[20] = second compound 3.16 µM, first compound 1 µM
[21] = second compound 10 µM, first compound 0.0316 µM
[22] = second compound 10 µM, first compound 0.1 µM
[23] = second compound 10 µM, first compound 0.316 µM
[24] = second compound 10 µM, first compound 1 µM
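Also: luminescence signal used as a surrogate for viable cells; spheroids exposed to drugs for seven days before readout.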

## CCCS(=O)(=O)Nc1ccc(F)c(C(=O)c2c[nH]c3ncc(-c4ccc(Cl)cc4)cc23)c1F + Nc1ccc(C#CCN(C(=O)Cc2ncc(C(F)(F)F)cc2C(F)(F)F)c2ccc(F)cc2)nn1
Second compound 0.0316 µM
  IC50: 5.51 µM
Second compound 0.1 µM
  IC50: 7.31 µM
Second compound 0.316 µM
  IC50: 5.97 µM
Second compound 1 µM
  IC50: 5.25 µM
Second compound 3.16 µM
  IC50: 6 µM
Second compound 10 µM
  IC50: 6.76 µM
[1]
  viability, T/C: 81.8%
[2]
  viability, T/C: 88.9%
[3]
  viability, T/C: 80.7%
[4]
  viability, T/C: 70.3%
Second compound 0.0316 µM, first compound 3.16 µM
  viability, T/C: 74.2%
Second compound 0.0316 µM, first compound 10 µM
  viability, T/C: 27.2%
[5]
  viability, T/C: 101%
[6]
  viability, T/C: 86.5%
[7]
  viability, T/C: 80.9%
[8]
  viability, T/C: 71.3%
Second compound 0.1 µM, first compound 3.16 µM
  viability, T/C: 82.8%
Second compound 0.1 µM, first compound 10 µM
  viability, T/C: 37.9%
[9]
  viability, T/C: 90.3%
[10]
  viability, T/C: 88.3%
[11]
  viability, T/C: 78.4%
[12]
  viability, T/C: 71.9%
Second compound 0.316 µM, first compound 3.16 µM
  viability, T/C: 79.3%
Second compound 0.316 µM, first compound 10 µM
  viability, T/C: 26.4%
[13]
  viability, T/C: 84.9%
[14]
  viability, T/C: 96.4%
[15]
  viability, T/C: 84.2%
[16]
  viability, T/C: 86.4%
Second compound 1 µM, first compound 3.16 µM
  viability, T/C: 66.8%
Second compound 1 µM, first compound 10 µM
  viability, T/C: 28.5%
[17]
  viability, T/C: 85.5%
[18]
  viability, T/C: 89.3%
[19]
  viability, T/C: 89.5%
[20]
  viability, T/C: 79.3%
Second compound 3.16 µM, first compound 3.16 µM
  viability, T/C: 73.1%
Second compound 3.16 µM, first compound 10 µM
  viability, T/C: 32.6%
[21]
  viability, T/C: 104%
[22]
  viability, T/C: 83.5%
[23]
  viability, T/C: 94%
[24]
  viability, T/C: 77.5%
Second compound 10 µM, first compound 3.16 µM
  viability, T/C: 71.4%
Second compound 10 µM, first compound 10 µM
  viability, T/C: 39.9%

## CCc1c2c(nc3ccc(O)cc13)-c1cc3c(c(=O)n1C2)COC(=O)[C@]3(O)CC + Nc1ccc(C#CCN(C(=O)Cc2ncc(C(F)(F)F)cc2C(F)(F)F)c2ccc(F)cc2)nn1
Second compound 0.0316 µM
  IC50: 0.0249 µM
Second compound 0.1 µM
  IC50: 0.0154 µM
Second compound 0.316 µM
  IC50: 0.0295 µM
Second compound 1 µM
  IC50: 0.02 µM
Second compound 3.16 µM
  IC50: 0.0219 µM
Second compound 10 µM
  IC50: 0.0163 µM
Second compound 0.0316 µM, first compound 0.00316 µM
  viability, T/C: 89.5%
Second compound 0.0316 µM, first compound 0.01 µM
  viability, T/C: 91.4%
[1]
  viability, T/C: 39.2%
[2]
  viability, T/C: 19%
[3]
  viability, T/C: 6.65%
[4]
  viability, T/C: 10.3%
Second compound 0.1 µM, first compound 0.00316 µM
  viability, T/C: 89.9%
Second compound 0.1 µM, first compound 0.01 µM
  viability, T/C: 60.1%
[5]
  viability, T/C: 32.7%
[6]
  viability, T/C: 20.1%
[7]
  viability, T/C: 6.93%
[8]
  viability, T/C: 6.26%
Second compound 0.316 µM, first compound 0.00316 µM
  viability, T/C: 79.8%
Second compound 0.316 µM, first compound 0.01 µM
  viability, T/C: 65.1%
[9]
  viability, T/C: 51.6%
[10]
  viability, T/C: 19.6%
[11]
  viability, T/C: 6.57%
[12]
  viability, T/C: 10.8%
Second compound 1 µM, first compound 0.00316 µM
  viability, T/C: 83.5%
Second compound 1 µM, first compound 0.01 µM
  viability, T/C: 70.4%
[13]
  viability, T/C: 33.9%
[14]
  viability, T/C: 22.8%
[15]
  viability, T/C: 5.79%
[16]
  viability, T/C: 5.67%
Second compound 3.16 µM, first compound 0.00316 µM
  viability, T/C: 74.1%
Second compound 3.16 µM, first compound 0.01 µM
  viability, T/C: 66.7%
[17]
  viability, T/C: 42%
[18]
  viability, T/C: 16.7%
[19]
  viability, T/C: 7.19%
[20]
  viability, T/C: 6.33%
Second compound 10 µM, first compound 0.00316 µM
  viability, T/C: 76.5%
Second compound 10 µM, first compound 0.01 µM
  viability, T/C: 65.5%
[21]
  viability, T/C: 29%
[22]
  viability, T/C: 17.8%
[23]
  viability, T/C: 9.23%
[24]
  viability, T/C: 3.78%
